Assay results reported in ChEMBL document CHEMBL1128255, “Synthesis of 11 beta-[18F]fluoro-5 alpha-dihydrotestosterone and 11 beta-[18F]fluoro-19-nor-5 alpha-dihydrotestosterone: preparation via halofluorination-reduction, receptor binding, and tissue distribution” (J Med Chem, 1995).

Legend:
[1] = %ID/g is percent injected dose per gram of tissue and in vivo distribution of compound obtained after 1 hour in prostate (v)/blood; type: ADME, organism-based
[2] = %ID/g is percent injected dose per gram of tissue and in vivo distribution of compound obtained after 2 hour (blocked) in muscle; type: ADME, organism-based
[3] = %ID/g is percent injected dose per gram of tissue and in vivo distribution of compound obtained after 2 hour (blocked) in liver; type: ADME, organism-based
[4] = %ID/g is percent injected dose per gram of tissue and in vivo distribution of compound obtained after 1 hour in bone; type: ADME, organism-based, Bone element
[5] = %ID/g is percent injected dose per gram of tissue and in vivo distribution of compound obtained after 2 hour (blocked) in fat; type: ADME, organism-based, Adipose tissue
[6] = %ID/g is percent injected dose per gram of tissue and in vivo distribution of compound obtained after 1 hour in spleen; type: ADME, organism-based
[7] = %ID/g is percent injected dose per gram of tissue and in vivo distribution of compound obtained after 1 hour in fat; type: ADME, organism-based, Adipose tissue
[8] = %ID/g is percent injected dose per gram of tissue and in vivo distribution of compound obtained after 4 hour in bladder; type: ADME, organism-based, Urinary bladder
[9] = %ID/g is percent injected dose per gram of tissue and in vivo distribution of compound obtained after 2 hour (low) in bladder; type: ADME, organism-based, Urinary bladder
[10] = %ID/g is percent injected dose per gram of tissue and in vivo distribution of compound obtained after 1 hour in prostate (v); type: ADME, organism-based, Prostate gland
[11] = %ID/g is percent injected dose per gram of tissue and in vivo distribution of compound obtained after 1 hour in lung; type: ADME, organism-based
[12] = %ID/g is percent injected dose per gram of tissue and in vivo distribution of compound obtained after 1 hour in prostate (d); type: ADME, organism-based, Prostate gland
[13] = %ID/g is percent injected dose per gram of tissue and in vivo distribution of compound obtained after 2 hr in kidney; type: ADME, organism-based
[14] = %ID/g is percent injected dose per gram of tissue and in vivo distribution of compound obtained after 2 hour in spleen; type: ADME, organism-based
[15] = %ID/g is percent injected dose per gram of tissue and in vivo distribution of compound obtained after 2 hour (blocked) in kidney; type: ADME, organism-based
[16] = %ID/g is percent injected dose per gram of tissue and in vivo distribution of compound obtained after 2 hour in prostate (v)/muscle; type: ADME, organism-based
[17] = %ID/g is percent injected dose per gram of tissue and in vivo distribution of compound obtained after 2 hour (low) in fat; type: ADME, organism-based, Adipose tissue
[18] = %ID/g is percent injected dose per gram of tissue and in vivo distribution of compound obtained after 2 hour (low) in prostate (v)/blood; type: ADME, organism-based
[19] = %ID/g is percent injected dose per gram of tissue and in vivo distribution of compound obtained after 2 hour (blocked) in prostate (v)/blood; type: ADME, organism-based; conditions: other tissue
[20] = %ID/g is percent injected dose per gram of tissue and in vivo distribution of compound obtained after 2 hour (low) in prostate (d)/muscle; type: ADME, organism-based
[21] = %ID/g is percent injected dose per gram of tissue and in vivo distribution of compound obtained after 2 hour in blood; type: ADME, organism-based
[22] = %ID/g is percent injected dose per gram of tissue and in vivo distribution of compound obtained after 2 hour (low) in prostate (v); type: ADME, organism-based, Prostate gland
[23] = %ID/g is percent injected dose per gram of tissue and in vivo distribution of compound obtained after 2 hour in prostate (v); type: ADME, organism-based, Prostate gland
[24] = %ID/g is percent injected dose per gram of tissue and in vivo distribution of compound obtained after 1 hour in prostate (v)/muscle; type: ADME, organism-based
[25] = %ID/g is percent injected dose per gram of tissue and in vivo distribution of compound obtained after 1 hour in blood; type: ADME, organism-based
[26] = %ID/g is percent injected dose per gram of tissue and in vivo distribution of compound obtained after 1 hour in prostate (d)/biood; type: ADME, organism-based, Prostate gland; conditions: other tissue
[27] = %ID/g is percent injected dose per gram of tissue and in vivo distribution of compound obtained after 2 hour (blocked) in prostate (d)/muscle; type: ADME, organism-based
[28] = %ID/g is percent injected dose per gram of tissue and in vivo distribution of compound obtained after 2 hour (low) in lung; type: ADME, organism-based
[29] = %ID/g is percent injected dose per gram of tissue and in vivo distribution of compound obtained after 1 hour in kidney; type: ADME, organism-based
[30] = %ID/g is percent injected dose per gram of tissue and in vivo distribution of compound obtained after 4 hour in prostate (v)/muscle; type: ADME, organism-based
[31] = %ID/g is percent injected dose per gram of tissue and in vivo distribution of compound obtained after 1 hour in liver; type: ADME, organism-based
[32] = %ID/g is percent injected dose per gram of tissue and in vivo distribution of compound obtained after 4 hour in prostate (d)/biood; type: ADME, organism-based, Prostate gland
[33] = %ID/g is percent injected dose per gram of tissue and in vivo distribution of compound obtained after 2 hour (blocked) in spleen; type: ADME, organism-based
[34] = %ID/g is percent injected dose per gram of tissue and in vivo distribution of compound obtained after 2 hour (low) in prostate (d)/biood; type: ADME, organism-based, Prostate gland
[35] = %ID/g is percent injected dose per gram of tissue and in vivo distribution of compound obtained after 2 hour (low) in liver; type: ADME, organism-based
[36] = %ID/g is percent injected dose per gram of tissue and in vivo distribution of compound obtained after 4 hour in prostate (v); type: ADME, organism-based, Prostate gland
[37] = %ID/g is percent injected dose per gram of tissue and in vivo distribution of compound obtained after 4 hour in prostate (d)/muscle; type: ADME, organism-based
[38] = %ID/g is percent injected dose per gram of tissue and in vivo distribution of compound obtained after 2 hour (low) in prostate (d); type: ADME, organism-based, Prostate gland
[39] = %ID/g is percent injected dose per gram of tissue and in vivo distribution of compound obtained after 2 hour in fat; type: ADME, organism-based, Adipose tissue
[40] = %ID/g is percent injected dose per gram of tissue and in vivo distribution of compound obtained after 1 hour in prostate (d)/muscle; type: ADME, organism-based
[41] = %ID/g is percent injected dose per gram of tissue and in vivo distribution of compound obtained after 2 hour (low) in spleen; type: ADME, organism-based
[42] = %ID/g is percent injected dose per gram of tissue and in vivo distribution of compound obtained after 2 hour (low) in prostate (v)/muscle; type: ADME, organism-based
[43] = %ID/g is percent injected dose per gram of tissue and in vivo distribution of compound obtained after 4 hour in muscle; type: ADME, organism-based
[44] = %ID/g is percent injected dose per gram of tissue and in vivo distribution of compound obtained after 2 hour in prostate (d)/muscle; type: ADME, organism-based
[45] = %ID/g is percent injected dose per gram of tissue and in vivo distribution of compound obtained after 2 hour (low) in kidney; type: ADME, organism-based
[46] = %ID/g is percent injected dose per gram of tissue and in vivo distribution of compound obtained after 2 hour in muscle; type: ADME, organism-based
[47] = %ID/g is percent injected dose per gram of tissue and in vivo distribution of compound obtained after 1 hour in muscle; type: ADME, organism-based
[48] = %ID/g is percent injected dose per gram of tissue and in vivo distribution of compound obtained after 2 hour in lung; type: ADME, organism-based
[49] = %ID/g is percent injected dose per gram of tissue and in vivo distribution of compound obtained after 4 hour in bone; type: ADME, organism-based, Bone element
[50] = %ID/g is percent injected dose per gram of tissue and in vivo distribution of compound obtained after 2 hour (blocked) in prostate (d); type: ADME, organism-based, Prostate gland

`C[C@]12CCC(=O)C[C@@H]1CC[C@@H]1[C@@H]2[C@@H](F)C[C@]2(C)[C@@H](O)CC[C@@H]12` gave an ID/g [1] of 5.41%, an ID/g [2] of 0.023% and an ID/g [3] of 0.468%. The ID/g [4] was 0.064%, the ID/g [5] was 0.026% and the ID/g [6] was 0.048%. It also gave an ID/g [7] of 0.061%, an ID/g [8] of 0.268% and an ID/g [9] of 0.263%. For the same compound, the ID/g [10] was 0.486%, the ID/g [11] was 0.111% and the ID/g [12] was 0.459%. For the same compound, the ID/g [13] was 0.229%, the ID/g [14] was 0.03% and the ID/g [15] was 0.2%. The ID/g [16] was 9.022%, the ID/g [17] was 0.02% and the ID/g [18] was 10.43%. It also gave an ID/g [19] of 1.357%, an ID/g [20] of 9.78% and an ID/g [21] of 0.038%. It also gave an ID/g [22] of 0.212%, an ID/g [23] of 0.317% and an ID/g [24] of 8.208%. It also gave an ID/g [25] of 0.092%, an ID/g [26] of 5.16% and an ID/g [27] of 3.089%. The ID/g [28] was 0.036%, the ID/g [29] was 0.417% and the ID/g [30] was 19.715%. It also gave an ID/g [31] of 1.16%, an ID/g [32] of 10.827% and an ID/g [33] of 0.026%. The ID/g [34] was 11.358%, the ID/g [35] was 0.228% and the ID/g [36] was 0.327%. It also gave an ID/g [37] of 17.573%, an ID/g [38] of 0.229% and an ID/g [39] of 0.024%. It also gave an ID/g [40] of 7.75%, an ID/g [41] of 0.017% and an ID/g [42] of 8.86%. For the same compound, the ID/g [43] was 0.017%, the ID/g [44] was 10.141% and the ID/g [45] was 0.145%. It also gave an ID/g [46] of 0.038%, an ID/g [47] of 0.059% and an ID/g [48] of 0.069%. For the same compound, the ID/g [49] was 0.072% and the ID/g [50] was 0.074%.

With `C[C@]12C[C@H](F)[C@H]3[C@@H](CC[C@H]4CC(=O)CC[C@@H]43)[C@@H]1CC[C@@H]2O` the ID/g [1] was 3.054%, the ID/g [2] was 0.03% and the ID/g [3] was 1.189%. For the same compound, the ID/g [4] was 0.068%, the ID/g [5] was 0.036% and the ID/g [6] was 0.061%. The ID/g [7] was 0.069%, the ID/g [8] was 0.456% and the ID/g [9] was 0.686%. For the same compound, the ID/g [10] was 0.284%, the ID/g [11] was 0.115% and the ID/g [12] was 0.21%. The ID/g [13] was 0.276%, the ID/g [14] was 0.036% and the ID/g [15] was 0.301%. For the same compound, the ID/g [16] was 3.404%, the ID/g [17] was 0.041% and the ID/g [18] was 2.427%. The ID/g [19] was 0.88%, the ID/g [20] was 3.83% and the ID/g [21] was 0.046%. The ID/g [22] was 0.109%, the ID/g [23] was 0.12% and the ID/g [24] was 4.4%. It also gave an ID/g [25] of 0.089%, an ID/g [26] of 2.531% and an ID/g [27] of 1.61%. For the same compound, the ID/g [28] was 0.061%, the ID/g [29] was 0.458% and the ID/g [30] was 2.919%. For the same compound, the ID/g [31] was 1.812%, the ID/g [32] was 2.682% and the ID/g [33] was 0.032%. It also gave an ID/g [34] of 3.126%, an ID/g [35] of 1.045% and an ID/g [36] of 0.066%. The ID/g [37] was 3.98%, the ID/g [38] was 0.139% and the ID/g [39] was 0.041%. The ID/g [40] was 3.473%, the ID/g [41] was 0.049% and the ID/g [42] was 2.993%. For the same compound, the ID/g [43] was 0.027%, the ID/g [44] was 3.882% and the ID/g [45] was 0.251%. The ID/g [46] was 0.035%, the ID/g [47] was 0.064% and the ID/g [48] was 0.058%. The ID/g [49] was 0.078% and the ID/g [50] was 0.048%.
